This is an account of results in PubChem BioAssay AID1645848.

≈ marks a conversion by molar mass, not a printed value. Where “and” joins values, the source holds several entries; their conditions need not be identical. Identical values can stand only once.

The conditions of the data set: buffer; pH 7.4; 6.0 h; 150.0 µM.
For the compound `CC[C@H]1NC(=O)[C@@H](NC(=O)c2ncccc2O)[C@@H](C)OC(=O)[C@H](c2ccccc2)NC(=O)[C@@H]2CC(=O)CCN2C(=O)[C@H](Cc2ccccc2)N(C)C(=O)[C@@H]2CCCN2C1=O`, the solubility (kinetic) is > 100 µg/mL. `COc1c2c(c3c(c1CCC(=O)O)OC(C)(C)C=C3)OC(C)(C)C=C2`: the kinetic solubility is > 51 µg/mL. Then `NC(=O)COc1cccc(C2CC(=O)Nc3nc(N4CCCCC4)sc32)c1` (configuration not stated), with > 57 µg/mL; and `CC(=O)Nc1cccc(-c2nc(-c3c(C)noc3C)cc3c2cc(-c2ccccc2)n3C)c1`, with < 1 µg/mL. For the compound `NS(=O)(=O)c1ccc(NC(=O)c2cc3ncccn3n2)cc1`, the kinetic solubility was 5.17 µg/mL (≈ 16.3 µM). As to `COc1cc2ncnc(Nc3ccc(Oc4ccccc4)cc3)c2cc1OC`, the kinetic solubility was < 1 µg/mL.

For the compound `Cc1sc(NC(=O)Cc2ccc3c(c2)OCO3)nc1-c1ccc2c(c1)CCN2C(=O)c1ccccc1`, the solubility (kinetic) was < 1 µg/mL. For `CCOc1ccc(CCN(C)C(=O)c2cc3sccc3n2Cc2ccccc2)cc1OCC`, the kinetic solubility was < 1 µg/mL. As for `CN1CCN(C(=O)c2ccc3cc(CCNc4ncnc5ccc(C#N)cc45)ccc3c2)CC1`, the kinetic solubility turned out to be 49.7 µg/mL (≈ 110 µM). Take `CCOC(=O)N1CCN(Cc2nc3cc(NC(=O)CC(C)C)ccc3n2C(C)C)CC1`: the solubility (kinetic) was > 63 µg/mL.

Take `N#Cc1cnccc1-c1nc(Nc2ccc(F)c(F)c2)c2ccccc2n1`: the kinetic solubility was < 1 µg/mL.

Take `Cc1ccc(S(=O)(=O)N2CCN(C(=O)c3cc4c(s3)CCC4)CC2)cc1`: the kinetic solubility is < 1 µg/mL. As for `CCNc1oc(-c2cccc3ccccc23)nc1C#N`, the solubility (kinetic) was < 1 µg/mL.

On to `CCOc1ccc(C(=O)Nc2ccc(S(=O)(=O)N3CCCCC3c3cccnc3)cc2)cc1` (configuration not stated), for which the kinetic solubility is < 1 µg/mL.

Turning to `Cc1ccc(OCCn2c(CCNC(=O)c3ccccc3Br)nc3ccccc32)cc1`, the kinetic solubility is < 1 µg/mL. `Clc1ccc2ncc(-c3cccc(NC4CNC4)n3)n2c1`: the kinetic solubility is > 44 µg/mL.

Regarding `O=S(=O)(Nc1ccccc1)c1ccc(NCc2ccc(Br)cc2O)cc1`, the solubility (kinetic) is 1.42 µg/mL (≈ 3.27 µM). Take `NC(=O)C1CCN(c2nc(-c3ccc(F)cc3)cs2)CC1`: the kinetic solubility is > 45 µg/mL. In turn, `O=C1CCCC2=C1C(c1[nH]ncc1Cl)N=C(Nc1nc3cc(F)ccc3o1)N2` (configuration not stated) showed a solubility (kinetic) of 3.16 µg/mL (≈ 7.87 µM). The same measure for `Cc1sc2c(c1C)C(c1ccc(Cl)cc1)=N[C@H](CC(=O)NCCCCNC(=O)COc1cccc3c1C(=O)N([C@H]1CCC(=O)NC1=O)C3=O)c1nnc(C)n1-2`: 63.8 µg/mL (≈ 81.2 µM). As for `CC(C)(C)C1CCc2nc(NC(=O)c3cccc(Cl)c3)sc2C1` (configuration not stated), the kinetic solubility is < 1 µg/mL.

On to `CCc1ccc(S(=O)(=O)Nc2cnccc2C(=O)Nc2nc(-c3ccccc3)cs2)cc1`, for which the kinetic solubility was < 1 µg/mL. For the compound `CCC(=O)NC(c1ccc(OC)cc1)c1cc(Cl)c2cccnc2c1O` (configuration not stated), the solubility (kinetic) was < 1 µg/mL.

The compound `COc1ccc(NC(=O)c2[nH]c(C)c(C(C)=O)c2C)cc1S(=O)(=O)N(C)C` showed a solubility (kinetic) of 3.68 µg/mL (≈ 9.34 µM).

With `Brc1ccc(-c2csc(N3CCCCC3)n2)cc1`, the solubility (kinetic) is < 1 µg/mL. Regarding `CCOc1ccc(OCC)c(NC(=O)C(NS(=O)(=O)c2ccc(Br)s2)c2ccccc2)c1` (configuration not stated), the kinetic solubility is < 1 µg/mL. Regarding `CCOP(=O)(Cc1ccc(C(=O)Nc2ccc(Br)cc2C#N)cc1)OCC`, the kinetic solubility turned out to be 14.9 µg/mL (≈ 33.1 µM).

As to `CC1=C(C(=O)Nc2ccccc2)C(c2ccccc2Cl)N=C(Nc2nc3ccccc3o2)N1` (configuration not stated), the solubility (kinetic) was < 1 µg/mL.

For the compound `CCC(CC)c1cc([C@H]2CN3CC[C@H]2C[C@@H]3CNC(C)=O)nc(-c2ccncc2)n1`, the kinetic solubility is > 60 µg/mL. For `O=C1Nc2ccccc2/C1=C\c1ccc(C(=O)O)cc1`, the kinetic solubility is > 39 µg/mL.

With `CCOC(=O)C1CCN(c2nc(-c3ccc(Br)cc3)cs2)CC1`, the kinetic solubility was < 1 µg/mL. Turning to `NC(=O)C1CCN(c2nc(-c3ccc(Br)cc3)cs2)CC1`, the kinetic solubility is < 1 µg/mL. Then `C[C@@]1(C(=O)Nc2ccc(F)nc2)CCCN1c1nc(Nc2cc(C3CC3)[nH]n2)c2cccn2n1`, with 31.1 µg/mL (≈ 67.4 µM); and `COc1nccc(-c2nc(Nc3ccc(F)c(F)c3)c3ccccc3n2)c1Cl`, with < 1 µg/mL; and `Cc1cnc(-c2ccccc2C2COC2)nc1NCc1ccc(-c2cccnc2)cc1`, with > 60 µg/mL.

Consider `Cc1ccc(S(=O)(=O)Nc2ccccc2C(=O)Nc2ncc(-c3ccccc3)s2)cc1`, for which the kinetic solubility was < 1 µg/mL. `O=C(O)c1cccc(-n2cccc2/C=C2/NC(=O)N(c3cccc(Cl)c3)C2=O)c1` registered a kinetic solubility of 32.7 µg/mL (≈ 80.1 µM).

In the case of `O=C(O)c1cccc(-c2cnc3ccccc3c2)c1`, the solubility (kinetic) was > 37 µg/mL. With `Cc1sc(NC(=O)Cc2ccc3c(c2)OCO3)nc1-c1ccc2c(c1)CCN2C(=O)c1ccccc1F`, the solubility (kinetic) was < 1 µg/mL. Regarding `COc1cc(-c2cn(C)c(=O)c3cnccc23)c(OC)cc1CN(C)C`, the solubility (kinetic) was > 52 µg/mL.

Turning to `O=C(Nc1ncc(Cc2ccc(C(F)(F)F)cc2)s1)c1cnc(-c2ccccc2)s1`, the solubility (kinetic) is < 1 µg/mL. The same measure for `CCN(CC)C(=O)N1c2ccccc2C=Cc2ccccc21`: 15.9 µg/mL (≈ 54.5 µM); for `Cc1noc([C@@H]2CN(C(=O)c3nn(C)c4ccccc34)C[C@H]2CO)n1`: > 100 µg/mL; for `COc1ccc(CCNC(=O)Cn2c(=O)c3cccn3c3ccc(F)cc32)cc1OC`: 6.63 µg/mL (≈ 15.7 µM). The same measure for `Cc1cccc(C)c1Nc1c(-c2ccccn2)nc2ccc(Cl)cn12`: < 1 µg/mL; for `COc1ccccc1CNC(=O)CCCn1nc(C)c2c(C)n(-c3ccc(C)cc3)nc2c1=O`: 2.29 µg/mL (≈ 4.98 µM); for `CC(C)C(=O)N1CCc2ccc(OCc3nc(C(=O)N4CCCC4)co3)cc2C1c1cccc(F)c1` (configuration not stated): 32.9 µg/mL (≈ 66.9 µM). `Cc1ccc(S(=O)(=O)Nc2cc(C(=O)Nc3nc(-c4ccccc4)cs3)ccn2)cc1`: the solubility (kinetic) was < 1 µg/mL. Then `Cc1cnc(NC(=O)c2ccc(-c3cccc([N+](=O)[O-])c3)o2)s1`, with < 1 µg/mL; and `CC(C)(C)C(=O)N1CCN(c2nccc(Nc3ccccc3Cl)n2)CC1`, with 26.3 µg/mL (≈ 70.3 µM). As for `O=C1Nc2ccccc2/C1=C\c1cc(F)c(O)c(F)c1`, the kinetic solubility was > 40 µg/mL. `Cc1ccnc(NC(=S)N2CCC(c3cccc(C(F)(F)F)c3)CC2)c1` returned a kinetic solubility of 7.75 µg/mL (≈ 20.4 µM).

`O=C(Nc1nc(-c2ccccn2)cs1)c1cccc(-n2cnnn2)c1` came in with a kinetic solubility of 1.1 µg/mL (≈ 3.15 µM). Consider `CC(C)c1ccc(Nc2c(-c3ccccn3)nc3ccccn23)cc1`, for which the kinetic solubility was < 1 µg/mL. With `Cc1ccc(-n2nc3c(=O)n(CCCC(=O)NC(C)c4ccccc4)nc(C)c3c2C)cc1` (configuration not stated), the kinetic solubility came to 4.59 µg/mL (≈ 10.4 µM). As for `Cc1n[nH]c(C)c1CCc1nc2c3ccccc3nc(SCC(=O)Nc3ccc(F)cc3)n2n1`, the kinetic solubility was < 1 µg/mL. For `Fc1ccc(Nc2nc(-c3ccccc3)nc3ccccc23)cc1F`, the kinetic solubility is < 1 µg/mL. The same measure for `COC(=O)c1ccccc1C(=O)Nc1nc(-c2ccccc2)cs1`: 7.61 µg/mL (≈ 22.5 µM); for `Cn1cnc(S(=O)(=O)Nc2cnccc2C(=O)Nc2nc(-c3ccccc3)cs2)c1`: > 65 µg/mL. The same measure for `COc1ccc(C2(C(=O)N3CCC(n4cc(-c5nc(C)no5)nn4)CC3)CC2)cc1`: > 60 µg/mL; for `O=C(O)CCNc1cc(N2CCc3ccccc3CC2)nc(-c2ccccn2)n1`: > 58 µg/mL; for `CC(=O)c1ccc(N2CCN(C(=O)c3ccc4c(c3)CC(=O)N4)CC2)cc1`: > 54 µg/mL. Then `FC(F)(F)c1ccccc1-c1nc(NCc2cccs2)c2ccccc2n1`, with < 1 µg/mL; and `OCCNc1ncnc2c1ncn2[C@@H]1O[C@@H](CO)[C@H](O)[C@@H]1O`, with > 46 µg/mL; and `CNS(=O)(=O)c1cc(-c2nn3c(C)nnc3c3ccccc23)ccc1C`, with 4.84 µg/mL (≈ 13.2 µM).

`CN=C1CN=C(c2ccc[nH]2)c2cc(Cl)ccc2N1`: the kinetic solubility was 10.8 µg/mL and 28.3 µg/mL.

With `CCOc1ccc(CCNC(=O)c2cc3sccc3n2Cc2ccc(F)cc2F)cc1OCC`, the solubility (kinetic) is < 1 µg/mL.

`CNC(=O)c1ccccc1Nc1nc(Nc2ccc(N3CCOCC3)cc2OC)ncc1Cl` gave a kinetic solubility of 4.18 µg/mL (≈ 8.91 µM).

In the case of `COc1ccc(Cn2c(C(=O)O)c(CNCc3cccc(OC)c3)c3ccc(C)cc32)cc1`, the solubility (kinetic) came out at 6.85 µg/mL (≈ 15.4 µM).

On to `CCCCC(C)/C=C(C)/C=C(\C)C(=O)NC1=CC(O)(/C=C/C=C/C=C/C(=O)NC2=C(O)CCC2=O)C2OC2C1=O` (configuration not stated), for which the solubility (kinetic) was > 81 µg/mL. `Cc1cc(-c2ccc(C)c(S(=O)(=O)NCC3CCN(Cc4ccc(F)cc4)CC3)c2)on1` had a solubility (kinetic) of 40.5 µg/mL (≈ 88.5 µM). Then `O=C1/C(=C\c2ccccc2)C[C@@]2(O)C3Cc4ccc(O)c5c4[C@@]2(CCN3CC2CC2)[C@H]1O5`, with > 42 µg/mL. `Cc1cc(C)c2nc(-c3ccccn3)cc(C(=O)Nc3ccc(S(=O)(=O)Nc4onc(C)c4C)cc3)c2c1` returned a kinetic solubility of 12 µg/mL (≈ 22.7 µM). `Cc1ccccc1S(=O)(=O)N1CCc2cc(-c3nc(NC(=O)Cc4ccc5c(c4)OCO5)sc3C)ccc21`: the kinetic solubility is < 1 µg/mL. Then `CNc1oc(-c2ccc(-c3ccccc3)cc2)nc1C#N`, with < 1 µg/mL; and `COCCOc1cnc2ccn([C@H](C)c3nnc4c(F)cc(-c5cnn(C)c5)cn34)c(=O)c2c1`, with > 68 µg/mL; and `Cc1cc(NS(=O)(=O)c2ccc(NCCc3ccc(Cl)c(Cl)c3)cc2)no1`, with 11.4 µg/mL (≈ 26.9 µM). Regarding `Nc1cc(CN2C(=O)c3ccccc3C2=O)cc(Cl)c1O`, the kinetic solubility came to 20.8 µg/mL (≈ 68.8 µM). On to `COc1ccccc1S(=O)(=O)Nc1cnccc1C(=O)Nc1nc(-c2ccccc2)cs1`, for which the kinetic solubility was 42.6 µg/mL (≈ 91.4 µM). Against the preceding compound, the solubility kinetic is about 2-fold higher. The same measure for `CC1CCN(S(=O)(=O)c2ccc3c(c2)C(C)(C)C(=O)N3CC(=O)NCc2ccco2)CC1`: 34.2 µg/mL (≈ 74.4 µM); for `c1ccc2c(Nc3ccon3)nc(-c3ccncc3)nc2c1`: < 1 µg/mL; for `CCN(CC)CCOc1ccc(Cc2ccccc2)cc1`: 8.35 µg/mL (≈ 29.5 µM). In the case of `O=C(/C=C/c1cccnc1)NCCCCC1CCN(C(=O)c2ccccc2)CC1`, the solubility (kinetic) is > 58 µg/mL. With `O=C(NCCc1nc2ccccc2n1CCO)C1CCCCC1`, the solubility (kinetic) is > 47 µg/mL. For the compound `Cc1cc(C)c(C(=O)Nc2cccc([S+](=O)([O-])N3CCCCCC3)c2)[nH]1`, the solubility (kinetic) was < 1 µg/mL. Then `CN(C)C(=O)NC1CCC(CCN2CCN(c3cccc(Cl)c3Cl)CC2)CC1` (configuration not stated), with 34.8 µg/mL (≈ 81.3 µM); and `COc1cccc(OC)c1C(=O)Nc1ccccc1C(=O)Nc1cccc(C(F)(F)F)c1`, with < 1 µg/mL.

By solubility (kinetic) is commonly meant the concentration staying in solution when a stock, usually in DMSO, is diluted into the medium.
